Here are results for 18 compounds from ChEMBL document CHEMBL1201862, “PubChem BioAssay data set” (2004).

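1) Cells in 96-well plates. 2) Compound, 48 h, 5 concentrations. 3) Linear interpolation between surrounding doses. 4) Unreached endpoint = highest concentration. GI50 = concentration required for 50% inhibition of growth.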 The source made the active and inactive calls. No stated cut-off is given here; in the data, active = GI50 up to about 1.1 µM and inactive = higher. Where a SMILES comes first, the peptide text is derived from it. [ ]: non-standard residue; d: D form. The star is where a group is joined. NMeF = CN[CH](Cc1ccccc1)C(=O)O; NMeV = CN[CH](C(=O)O)C(C)C; Boc = CC(C)(C)OC(=O)*; OBn = c1ccc(CO*)cc1 A value given as a limit tells only on which side of the number the result lay.

Test systems include HOP-18; SNB-78; M19-MEL; KM-20L2; DMS-273; DMS-114; DLD-1; RXF 631; XF498.
What all share (assay): growth of human tumour cells (NCI), 48 h

On to `CCC1(CC)C(=O)NC(=O)NC1=S`, for which the GI50 with HOP-18, in the assay on SNB-78, in the assay on M19-MEL, in the assay on KM-20L2, with DMS-273 and with DMS-114 was > 100 µM (inactive) throughout. Moreover, the GI50 in the assay on DLD-1 is > 100 µM (inactive).

Take `COc1ccc(NC(=O)CC2SC(Nc3ccc(Cl)cc3C)=NC2=O)c([N+](=O)[O-])c1` (stereo not drawn): the GI50 in the assay with SNB-78, in the assay on RXF 631, in the assay with M19-MEL, with KM-20L2, in the assay with DMS-273 and with DMS-114 was > 100 µM (inactive) in each case. Further, the GI50 in the assay on DLD-1 is > 100 µM (inactive).

On to `O=c1c2c(c1=O)-c1ccccc1CN2`, for which the GI50 in the assay with SNB-78 was > 100 µM (inactive); in the assay with M19-MEL, > 100 µM (inactive); with KM-20L2 it was > 100 µM (inactive); with DMS-273, > 100 µM (inactive); in the assay with XF498 it was 20.6 µM (inactive); with DMS-114 it was > 100 µM (inactive). Also, the GI50 in the assay with DLD-1 was > 100 µM (inactive).

Regarding `CC(C)OP(=O)(OC(C)C)/C(=N/Nc1ccccc1[N+](=O)[O-])NCCN/C(=N\Nc1ccccc1[N+](=O)[O-])P(=O)(OC(C)C)OC(C)C`, the GI50 was 34.9 µM (inactive) in the assay with M19-MEL; 24.9 µM (inactive) in the assay with KM-20L2; 35.2 µM (inactive) with DMS-273; 31.7 µM (inactive) with DMS-114; 34 µM (inactive) in the assay with DLD-1.

Regarding `[O-][n+]1c2c([n+]([O-])c3ccccc31)CCCCCCCCCC2`, the GI50 in the assay with SNB-78 was > 100 µM (inactive); in the assay with M19-MEL, > 100 µM (inactive); in the assay on KM-20L2, 17.5 µM (inactive); in the assay with DMS-273, > 100 µM (inactive); with XF498 it was > 100 µM (inactive); in the assay on DLD-1 it was > 100 µM (inactive).

As to `O=P1(Oc2ccccc2)C(c2ccccc2)C(c2ccccc2)=NN1c1ccccc1` (stereo not drawn), the GI50 is 44.1 µM (inactive) in the assay with HOP-18; 46.5 µM (inactive) in the assay on SNB-78; 35.4 µM (inactive) in the assay with RXF 631; 23.1 µM (inactive) in the assay with M19-MEL; 20.7 µM (inactive) in the assay on KM-20L2; 30.3 µM (inactive) in the assay with DMS-273. Further, the GI50 with XF498 is 43.2 µM (inactive); in the assay on DMS-114 it was 19.5 µM (inactive); in the assay with DLD-1, 18.3 µM (inactive).

For `O=C(O)c1ccc(C2C3C=CC(C3)C2[N+](=O)[O-])cc1` (stereo not drawn), the GI50 in the assay on SNB-78, with RXF 631, in the assay on M19-MEL, in the assay on KM-20L2, in the assay with DMS-273 and in the assay on XF498 was > 100 µM (inactive) in each case. Also, the GI50 with DMS-114 and in the assay on DLD-1 was > 100 µM (inactive) each time.

With `C=C(NC(=O)C(=C)NC(=O)c1csc(C2=NC3c4csc(n4)C4NC(=O)c5csc(n5)C(C(C)(O)C(C)O)NC(=O)C5CSC(=N5)/C(=C/C)NC(=O)C(C(C)O)NC(=O)c5csc(n5)C3(CC2)NC(=O)C(C)NC(=O)C(=C)NC(=O)C(C)NC(=O)C(C(C)CC)NC2C=Cc3c(C(C)O)cc(nc3C2O)C(=O)OC4C)n1)C(N)=O` (stereo not drawn), the GI50 with HOP-18 is 2.72 µM (inactive); in the assay on SNB-78 it was 2.54 µM (inactive); in the assay on RXF 631 it was 3.61 µM (inactive); in the assay on M19-MEL, 1.37 µM (inactive); in the assay on KM-20L2, 2.84 µM (inactive); with DMS-273, 1.37 µM (inactive). Moreover, the values for the GI50 in the assay with XF498, in the assay with DMS-114 and in the assay with DLD-1 were 0.355 µM (active), 2.72 µM (inactive) and 1.76 µM (inactive), respectively.

As for `CC(C)(CN1CCCCC1)C(=O)CC(SCCN)c1ccc(Cl)cc1` (stereo not drawn), the GI50 in the assay on SNB-78 was 2.56 µM (inactive); in the assay on RXF 631, 3.94 µM (inactive); in the assay on M19-MEL it was 2.28 µM (inactive); in the assay on KM-20L2, 1.67 µM (inactive); with DMS-273 it was 1.98 µM (inactive); with XF498, 1.71 µM (inactive). The GI50 in the assay with DMS-114 was 1.58 µM (inactive); in the assay on DLD-1, 1.59 µM (inactive).

Take `Cc1c(C)c([N+](=O)[O-])c2c(c1N)C(=O)c1ccccc1C2=O`: the GI50 with HOP-18 is 33 µM (inactive); in the assay with SNB-78, > 100 µM (inactive); with M19-MEL it was 90.8 µM (inactive); in the assay with KM-20L2 it was > 100 µM (inactive); with DMS-273, > 100 µM (inactive); in the assay with XF498, > 100 µM (inactive). Also, the GI50 in the assay on DMS-114 and in the assay on DLD-1 was > 100 µM (inactive) in each case.

`C[C@H]1CC(=O)C2=CCCC3(SCCCS3)[C@@H]2[C@H]1CO`: the GI50 was > 100 µM (inactive) with HOP-18; > 100 µM (inactive) in the assay on RXF 631; 78.5 µM (inactive) with M19-MEL; > 100 µM (inactive) in the assay with DMS-273; > 100 µM (inactive) in the assay with XF498; > 100 µM (inactive) in the assay with DMS-114. In addition, the GI50 with DLD-1 was > 100 µM (inactive).

`CC(=O)O[C@]12CCCC1C1(O)C(O)CCCC12` (stereo partly drawn): the GI50 in the assay on HOP-18, with SNB-78, in the assay with M19-MEL, in the assay with KM-20L2, in the assay on DMS-273 and with XF498 was > 100 µM (inactive) in each case. The GI50 with DMS-114 is > 100 µM (inactive).

Regarding `O=C1C2c3[nH]c4ccccc4c3C3CCCCC3C2C(=O)N1c1ccccc1` (stereo not drawn), the GI50 in the assay with HOP-18 was 37.2 µM (inactive); in the assay with SNB-78, 38.3 µM (inactive); in the assay on RXF 631 it was > 100 µM (inactive); in the assay with M19-MEL, > 100 µM (inactive); in the assay on DMS-273, 85.3 µM (inactive); in the assay with DMS-114, > 100 µM (inactive). Besides, in the assay with DLD-1, the GI50 was > 100 µM (inactive).

For the compound `N#C/C(=C\c1ccc2ccccc2c1)C(=O)c1ccccc1`, the GI50 in the assay on HOP-18 was > 100 µM (inactive); in the assay on SNB-78 it was > 100 µM (inactive); in the assay on M19-MEL, > 87.9 µM (inactive); with KM-20L2 it was > 100 µM (inactive); in the assay with DMS-273, > 100 µM (inactive); with XF498, > 100 µM (inactive). Moreover, the GI50 with DMS-114 and with DLD-1 was > 100 µM (inactive) in each case.

For `O=C(OC1CCC(=C2SCCCS2)[C@H]1C1SCCCS1)c1ccccc1` (stereo partly drawn), the GI50 in the assay on RXF 631 was > 100 µM (inactive); in the assay with M19-MEL, > 100 µM (inactive); in the assay with KM-20L2, > 100 µM (inactive); in the assay on DMS-273 it was > 100 µM (inactive); with DMS-114 it was 89.5 µM (inactive); in the assay on DLD-1 it was > 100 µM (inactive).

Turning to `O=c1ncccn1C1OC(CO)C(O)C1O` (stereo not drawn), the GI50 in the assay on HOP-18, in the assay with SNB-78, in the assay with M19-MEL, in the assay with KM-20L2, in the assay on DMS-273 and with DMS-114 was > 100 µM (inactive) each time. In addition, in the assay with DLD-1, the GI50 was > 100 µM (inactive).

Regarding `COc1cc(/C=C\c2ccc(C)cc2)cc(OC)c1OC`, the GI50 in the assay on SNB-78 is 0.0001 µM (active); in the assay with M19-MEL, 0.00197 µM (active); with KM-20L2, 0.000117 µM (active); in the assay on DMS-273 it was 0.0012 µM (active); in the assay on XF498, 0.00033 µM (active); with DMS-114 it was 0.000266 µM (active). Moreover, the GI50 in the assay on DLD-1 is 0.00237 µM (active).

For the compound `CC(C)C(NC(=O)OC(C)(C)C)C(=O)N(C)C(Cc1ccccc1)C(=O)N(C)C(C(=O)N(C)C(C(=O)OCc1ccccc1)C(C)C)C(C)C` (stereo not drawn) (Boc-V[NMeF][NMeV][NMeV]-OBn; configuration not given here), the GI50 with M19-MEL is > 100 µM (inactive); with KM-20L2, > 100 µM (inactive); in the assay with DMS-273, 72.8 µM (inactive); in the assay on XF498, 19.4 µM (inactive); with DMS-114 it was 62.5 µM (inactive).
